Assay results as given in US20260325520A1, “METHODS FOR TREATING OR PREVENTING NEUROENDOCRINE TUMR FORMATION USING CDC7 INHIBITORS” (Memorial Sloan-Kettering Cancer Center, priority 2022, published 2026).

How the values were obtained:
Assay type in all cases: cell-based
[1] = tested on: Proteasome 20S; experiment: Proteasome activity assay; details: prostate transformation models (FIG. 6D)
Description: FIG. 6A: Pathway enrichment analyses on differentially expressed genes between the combo-and enzalutamide-treated tumors, collected at an intermediate time point in the for TP53/RB1-inactivated LnCap and 22PC experiments shown in FIG. 5. […] FIG. 6C: MYC mRNA levels in the tumors collected at endpoint in the prostate transformation models treated in FIG. 5A. FIG. 6D: Barplot showing proteasome activity in control and CDC7-inhibited (either pharmacologically by simurosertib, or genetically by CDC7 CRISPR KO) prostate transformation models. FIG. 6E: Western blots showing neuroendocrine marker expression in prostate models of transformation, when treated with enzalutamide, simurosertib or their combination. Specifically, for each treatment condition, isogenic control and MYC^T58A-expressing cells were analyzed.
Proteasome activity was measured with the Proteasome 20S Activity Assay Kit (#MAK172, Sigma), following the manufacturer's instructions.

[2] = tested on: SCLC cell lines; experiment: Growth inhibition of SCLC cell lines by CDC7 inhibitors, correlation with CDC7 mRNA and protein expression; details: array of SCLC cell lines, Spearman's test
Description: (§1) FIG. 1A: CDC7 mRNA expression in cell lines derived from different tumor types. The data was obtained from CCLE through UCSC Xenabrowser portal (https://xenabrowser.net/) in December 2020. Lines indicate the median CDC7 mRNA expression in SCLC cell lines. FIG. 1B: CDC7 protein expression assessed by IHC in NSCLC (N=58) and SCLC (N=45) clinical samples. Protein expression is shown as IHC score. H-score medians and standard deviation are shown. FIG. 1C: Western blot showing CDC7 KO in H82 (SCLC-N) and H146 (SCLC-A) SCLC cell lines. Proliferation (FIG. 1D) and soft agar colony formation (FIG. 1E) assays in isogenic H82 and H146 cell lines with CDC7 KO. In FIG. 1D, lower line graphs correspond to CDC7 KO (sgCDC7). FIG. 1F: Ectopic overexpression of CDC7 in H69 (SCLC-A) and DMS114 (SCLC-Y) SCLC cell lines. Proliferation (FIG. 1G) and soft agar colony formation (FIG. 1H) assays in isogenic H69 and DMS114 cell lines with ectopic CDC7 overexpression. […] FIG. 1I: Bivariate correlation of CDC7 mRNA and protein expression with simurosertib or LY3143921 sensitivity (assessed as growth inhibition) in an array of SCLC cell lines. Correlation was calculated with Spearman's test. […]
Cytotoxic assays were performed as described in ^19. […] Viability was assessed with the CellTiter-Glo 2.0 Assay (Promega, G9242) as indicated by manufacturer. […]

[3] = tested on: SCLC cell lines (control and CDC7 KO); experiment: Viability of control and CDC7 CRISPR-Cas9 KO cell lines treated with simurosertib; details: GI50 concentration
Description: as §1
Cytotoxic assays were performed as described in ^19. […] Viability was assessed with the CellTiter-Glo 2.0 Assay (Promega, G9242) as indicated by manufacturer.

[4] = tested on: LnCap (PRAD) cells; experiment: Viability of control and TP53/RB1-loss LnCap cells treated with simurosertib; details: 0.5 μM; double TP53/RB1 loss versus control
Description: FIG. 4A: CDC7 mRNA expression in adenocarcinoma clinical specimens, categorized by their TP53/RB1 status. Data obtained from LUAD TCGA (PanCancer), LUAD OncoSG (OncoSG, Nat Genetics 2020) and PRAD TCGA (PanCancer). FIG. 4B: Western blot showing CDC7 protein levels in isogenic H1563 (LUAD) and 22PC (PRAD) cell lines with or without induced loss of function of TP53 and/or RB1 (see methods). FIG. 4C: Plot showing a representative biological replicate of an experiment assessing viability of control and TP53/RB1-loss H1563, 22PC and LnCap (PRAD) cells treated with 0.5 μM simurosertib. Student's t-test was performed to assess statistical significance (two-tailed, assuming heterogeneous value distribution). p-value legend: *<0.05, **<0.01, ***<0.001.
TP53/RB1-deficient PRAD cell lines were generated as previously described^16. TP53/RB1-deficient LUAD cell lines were generated by lentiviral transduction of a construct expressing a dominant negative TP53 isoform and a short hairpin RNA against RB1, produced from the FU-CYW vector that was previously described^18 and kindly shared by Dr. Owen Witte.
Cytotoxic assays were performed as described in ^19. A total of 1,500 cells/well were seeded in 96-well plates and treated with the drugs/doses described for 96 hours. Viability was assessed with the CellTiter-Glo 2.0 Assay (Promega, G9242) as indicated by manufacturer.

Cc1n[nH]cc1-c1cc2nc([C@@H]3CC4CCN3CC4)[nH]c(=O)c2s1 [simurosertib]
proteasome activity [1]: induced proteasome activity | sensitivity correlation with CDC7 mRNA and protein expression [2]: correlated with CDC7 mRNA and protein expression | simurosertib sensitivity of CDC7 KO cells [3]: CDC7 KO rendered the cells resistant to simurosertib | simurosertib sensitivity [4]: increased simurosertib sensitivity
